Experimental data published in BindingDB's records for doi:10.1007/s10822-022-00478-x (Roche Innovation Center Basel, F. Hoffmann-La Roche Ltd., 2022).
pIC50: −log10 of the molar value.

biological target: cAMP and cAMP-inhibited cGMP 3',5'-cyclic phosphodiesterase 10A (Homo sapiens, UniProt Q9Y233); experiment: PDE10A assay
Procedure: Compounds were diluted in 20 mM HEPES/NaOH (pH 7.5), 10 mM MgCl2 and 0.05 mg/ml bovine serum albumin. A fixed amount of 2 ng/well human PDE10A enzyme was added and incubated at room temperature for 15 min under agitation. The reaction was started by the addition of the substrate cocktail [3H]cGMP (Perkin Elmer NET337001MC, S.A. 13.5 Ci/mmol) / cGMP at a final concentration of 50 nM and incubated for an additional 15 min. The reaction was stopped by the addition of 0.5 mg/well of Y-Si SPA beads. The plates were shaken for 1 h, followed by a brief centrifugation (170 g for 1 min). The radioactivity bound to the beads was estimated using a TopCount (Perkin-Elmer). For the determination of IC50 values, a four parameters logistics equation was used. pIC50 is defined as − log10(IC50).

pIC50	Compound
6.48	Cc1nc2nc(CCc3nc(-c4ccccc4)cn3C)[nH]c(=O)c2n1C [Roche-Dataset for PDE10A, Compound 687]
7.28	Cn1ncc(CO)c1C(=O)Nc1ccn2nc(-c3ccccc3)nc2c1 [Roche-Dataset for PDE10A, Compound 287]
6.09	O=C(NCCCS(=O)(=O)c1ccccc1)c1nc(C2CC2)cnc1Nc1cncnc1 [Roche-Dataset for PDE10A, Compound 665]
5.48	Cc1cc(NC(=O)c2ccc3cc(-c4ccccc4)nn3c2)on1 [Roche-Dataset for PDE10A, Compound 898]
7.15	COc1ccc2c(=O)n(C)c3c(C)nc(-c4cccc(Cl)c4)n3c2c1 [Roche-Dataset for PDE10A, Compound 981]
8.01	O=C(Nc1ccn(-c2ccncc2)n1)c1nc(C2CC2)ccc1Nc1cncnc1 [US8470820, 7]
5.55	Cn1nc(-c2ccccn2)cc1NC(=O)c1c(I)cc[nH]c1=O [Roche-Dataset for PDE10A, Compound 774]
7.92	O=C(N[C@@H]1CCN(c2ccc(Cl)nn2)C1)c1nc(C2CC2)ccc1Nc1cncnc1 [Roche-Dataset for PDE10A, Compound 923]
6.88	Cn1ncc(-c2ccccc2)c1C(=O)Nc1ccn2nc(-c3ccccc3)nc2c1 [Roche-Dataset for PDE10A, Compound 172]
5.99	O=C(NCc1ncco1)c1nc(C2CC2)cnc1Nc1cncnc1 [Roche-Dataset for PDE10A, Compound 1086]
6.03	O=C(Nc1ccncc1F)c1ccc2cc(-c3ccccc3)nn2c1 [Roche-Dataset for PDE10A, Compound 471]
7.59	Cn1cc(-c2ccccc2)nc1COc1nc2ccccc2nc1C(F)(F)F [Roche-Dataset for PDE10A, Compound 644]
5.00	CN(CCNC(=O)c1nc(C2CC2)cnc1Nc1cncnc1)C(=O)c1ccccn1 [Roche-Dataset for PDE10A, Compound 581]
8.25	O=C(Nc1ccn(C2CCCC2)n1)c1nc(C2CC2)ccc1Nc1cncnc1 [Roche-Dataset for PDE10A, Compound 580]
7.24	c1cc(COc2nc(N3CCOCC3)c3ccccc3n2)nc(N2CCCC2)c1 [4-(2-((6-(pyrrolidin-1-yl)pyridin-2-yl)methoxy)quinazolin-4-yl)morpholine]
8.94	CNC(=O)c1cc(C(C)C)ccc1NC(=O)c1nc(C2CC2)cnc1Nc1cncnc1 [US8703768, 208]
9.51	CC(C)(CO)NC(=O)c1ncccc1NC(=O)c1nc(C2CC2)cnc1Nc1cncnc1 [US8703768, 273]
5.80	O=C(NCC1CCC1)c1nc(C2CC2)cnc1Nc1cncnc1 [Roche-Dataset for PDE10A, Compound 1038]
6.24	Cn1ncc(C(=O)O)c1C(=O)Nc1ccn2nc(-c3ccnc(F)c3)nc2c1 [Roche-Dataset for PDE10A, Compound 394]
7.12	O=C(Nc1ccn2nc(-c3ccccc3)nc2c1)c1cc(Cl)ccn1 [Roche-Dataset for PDE10A, Compound 454]
8.47	CCc1cc(C(F)(F)F)c2nc(CCc3nc(N4CCCC4)nn3C)nn2c1C [Roche-Dataset for PDE10A, Compound 171]

pIC50	Compound
6.88	O=C(Nc1cccc(N2CCCC2)c1)c1nc(C2CC2)cnc1Nc1cncnc1 [Roche-Dataset for PDE10A, Compound 793]
9.74	COCCn1nc(-c2ccccn2)cc1NC(=O)c1nc(C2CC2)ccc1Nc1cncnc1 [US8470820, 38]
5.00	O=C(c1nc(C2CC2)cnc1Nc1cncnc1)N1CCC(Cc2ccccc2)CC1 [Roche-Dataset for PDE10A, Compound 937]
8.94	Cn1ncc(C(=O)N2CC(F)C2)c1C(=O)Nc1ccn2nc(-c3cccnc3)nc2c1 [Roche-Dataset for PDE10A, Compound 337]
7.96	Cc1c(-c2ccccc2)nc2n1CC[C@@H](NC(=O)c1c(C(=O)N3CCC3)cnn1C)C2 [Roche-Dataset for PDE10A, Compound 173]
9.04	Cn1nc(-c2ccc3ccccc3n2)cc1NC(=O)c1c(C(=O)N2CCC2)cnn1C [Roche-Dataset for PDE10A, Compound 468]
8.28	CN(C)c1nc2cc(NC(=O)c3c(C(=O)N4CCCC4)cnn3C)ccn2n1 [Roche-Dataset for PDE10A, Compound 489]
8.14	CCc1nc(C)c(C(=O)Nc2cc3nc(-c4ccccc4)[nH]c3cc2C(=O)NCC2(CO)COC2)o1 [Roche-Dataset for PDE10A, Compound 163]
7.85	CNC(=O)c1cc2[nH]c(-c3ccccc3)nc2cc1NC(=O)c1ccnn1C [Roche-Dataset for PDE10A, Compound 452]
8.24	O=C(Nc1ccc2cccnc2c1)c1nc(C2CC2)ccc1Nc1cncnc1 [Roche-Dataset for PDE10A, Compound 929]
7.49	O=C(Nc1nc(CN2CCCCC2)cs1)c1nc(C2CC2)cnc1Nc1cncnc1 [Roche-Dataset for PDE10A, Compound 832]
6.03	CNC(=O)c1cc2[nH]c(-c3ccccc3)nc2cc1NC(=O)c1cc(C)nn1C(C)(C)C [Roche-Dataset for PDE10A, Compound 558]
8.47	Cc1ncc(C)n2nc(/C=C/c3nc(N4CCC[C@@H]4C(F)(F)F)nn3C)nc12 [Roche-Dataset for PDE10A, Compound 782]
8.31	O=C(Nc1cc(-c2ccccn2)nn1CCc1ccccc1)c1nc(C2CC2)ccc1Nc1cncnc1 [US8470820, 17]
5.79	CCn1nc(NC(=O)c2c(C(=O)N3CCC3)cnn2C)cc1-c1cccc(Cl)c1 [Roche-Dataset for PDE10A, Compound 744]
7.72	CN(C)C(=O)c1cnn(C)c1C(=O)N[C@@H]1CCn2cc(-c3ccccc3OC(F)F)nc2C1 [Roche-Dataset for PDE10A, Compound 317]
5.63	O=C(Nc1ccc2cc(-c3ccccc3)nn2c1)c1ccno1 [Roche-Dataset for PDE10A, Compound 679]
7.70	O=C(Nc1ccc(-n2ccccc2=O)cc1)c1nc(C2CC2)ccc1Nc1cncnc1 [Roche-Dataset for PDE10A, Compound 545]
9.30	Cc1c(Cl)cc(OCC(F)(F)F)c2nc(CCc3nc(N4CCCC4)nn3C)nn12 [Roche-Dataset for PDE10A, Compound 119]
8.27	Cc1cnc(C)n2nc(/C=C/c3nc(N4CCCC4)nn3C)nc12 [Roche-Dataset for PDE10A, Compound 474]
5.83	COc1ccc(NC(=O)c2nc(C3CC3)cnc2Nc2cncnc2)nn1 [Roche-Dataset for PDE10A, Compound 1054]

pIC50	Compound
6.98	Cn1ncc(C(=O)N2CCOCC2)c1C(=O)Nc1ccn2nc(-n3ccnc3)nc2c1 [Roche-Dataset for PDE10A, Compound 496]
7.32	CC(C)n1ccc(NC(=O)c2nc(C3CC3)ccc2Nc2cncnc2)n1 [Roche-Dataset for PDE10A, Compound 692]
5.59	COCCNC(=O)c1nc(C2CC2)cnc1Nc1cncnc1 [Roche-Dataset for PDE10A, Compound 946]
7.74	Cc1cnc(C)n2nc(CCc3nc(N4CCCC4)nn3C3CC3)nc12 [Roche-Dataset for PDE10A, Compound 436]
7.08	O=C(NCCc1cccc(C(F)(F)F)c1)c1nc(C2CC2)cnc1Nc1cncnc1 [Roche-Dataset for PDE10A, Compound 491]
7.64	CNC(=O)c1cc2[nH]c(-c3ccccc3)nc2cc1NC(=O)c1ccnnc1 [Roche-Dataset for PDE10A, Compound 466]
6.85	CNC(=O)c1c(NC(=O)c2nc(OC)cnc2Nc2cncnc2)cnn1C [US8703768, 258]
9.15	Cn1ncc(C(=O)N2CCC2)c1C(=O)Nc1cn(-c2ccc3ccccc3n2)cn1 [Roche-Dataset for PDE10A, Compound 137]
7.02	Cc1nnc2c(C(=O)NCCc3nc(-c4ccccc4)cn3C)cccn12 [Roche-Dataset for PDE10A, Compound 166]
8.48	Cc1ncc(C2CC2)c2nc(CCc3nc(N4CCCC4)nn3C)nn12 [Roche-Dataset for PDE10A, Compound 605]
5.64	Cn1cc(-c2ccccc2)nc1/C=C/c1cc(Cl)nc(Cl)n1 [Roche-Dataset for PDE10A, Compound 543]
7.18	Cn1ncc(C(=O)O)c1C(=O)Nc1ccn2nc(-c3cccnc3F)nc2c1 [Roche-Dataset for PDE10A, Compound 458]
5.38	COc1cnc(C)n2c(CCc3nc(N4CCCC4)nn3C)nnc12 [Roche-Dataset for PDE10A, Compound 633]
5.21	Cc1ncc(C)n2nc(/C=C/c3nc(N4C[C@@H]5C[C@H]6CN(C(=O)OC(C)(C)C)C[C@]65C4)nn3C)nc12 [Roche-Dataset for PDE10A, Compound 1066]
7.34	Cc1ncc(C)n2nc(/C=C/c3nc(-c4cc[nH]n4)nn3C)nc12 [Roche-Dataset for PDE10A, Compound 618]
6.75	Cc1ncc(C)n2nc(/C=C/c3nc(C)n(-c4ccccc4)n3)nc12 [Roche-Dataset for PDE10A, Compound 720]
5.63	O=C(Nc1ccn2nc(-c3ccccc3)nc2c1)c1ccno1 [Roche-Dataset for PDE10A, Compound 606]
7.85	CNC(=O)c1c(NC(=O)c2nc(C3CC3)ccc2Nc2cncnc2)cnn1C [Roche-Dataset for PDE10A, Compound 1053]
5.00	Cc1cc(C)n2nc(CCc3ncnn3C)nc2n1 [Roche-Dataset for PDE10A, Compound 1159]
6.19	Cc1cc(NC(=O)c2c(C(=O)N3CCC3)cnn2C)n(C2CCCC2)n1 [Roche-Dataset for PDE10A, Compound 1046]
